Patent publication US8580709B2, “Plant growth regulation” (Syngenta Crop Protection, LLC, priority 2009, dated 2013)

Assays:
Format in all cases: in vivo
[1] = tested on: Spring-wheat Lona; experiment: Plant growth regulation on cereals, greenhouse spray, visual shoot growth reduction; details: 13 days after application, growth stage 30-32, vs untreated control
Description: (§1) Plants were grown under greenhouse conditions and sprayed at growth stage 30-32 (start of stem elongation) of cereal plants with a boom sprayer. Trinexapac-ethyl (treatment A) was applied as Moddus® ME250 formulation, and Prohexadione-Ca (treatment B) was applied as Viviful® WG10 formulation with a standard flat fan nozzle at 200 l/ha spray volume. 13 days after application the plant growth reduction (% GR) of the shoot (leaves and stem) was evaluated visually compared to the untreated control. The expected plant growth reduction was calculated according to Colby (Colby 1967, Weeds 15, 20-22) and compared to evaluation data of sprayed plants.

[2] = tested on: Spring-barley Pasadena; experiment: as above; details: 13 days after application, growth stage 30-32, vs untreated control
Description: as §1

[3] = tested on: Winter-barley Hasso; experiment: as above; details: 13 days after application, growth stage 30-32, vs untreated control
Description: as §1

[4] = tested on: Winter-wheat Arina; experiment: as above; details: 13 days after application, growth stage 30-32, vs untreated control
Description: as §1

[5] = tested on: Corn Ronaldinio; experiment: Plant growth regulation on corn, greenhouse spray, visual shoot growth reduction; details: 33 days after application, growth stage 13, vs untreated control
Description: as §1, with “Corn plants of 4 different varieties” for “Plants”, “13 (3 leaves unfolded)” for “30-32 (start of stem elongation) of cereal plants”, “Trinexapac-ethyl” for “Trinexapac-ethyl (treatment A)”, “Prohexadion-Ca” for “Prohexadione-Ca (treatment B)”, “WG 10” for “WG10”, “33” for “13”

[6] = tested on: Corn ECO5133; experiment: as above; details: 33 days after application, growth stage 13, vs untreated control
Description: as §1, with “Corn plants of 4 different varieties” for “Plants”, “13 (3 leaves unfolded)” for “30-32 (start of stem elongation) of cereal plants”, “Trinexapac-ethyl” for “Trinexapac-ethyl (treatment A)”, “Prohexadion-Ca” for “Prohexadione-Ca (treatment B)”, “WG 10” for “WG10”, “33” for “13”

[7] = tested on: Corn Maeva; experiment: as above; details: 33 days after application, growth stage 13, vs untreated control
Description: as §1, with “Corn plants of 4 different varieties” for “Plants”, “13 (3 leaves unfolded)” for “30-32 (start of stem elongation) of cereal plants”, “Trinexapac-ethyl” for “Trinexapac-ethyl (treatment A)”, “Prohexadion-Ca” for “Prohexadione-Ca (treatment B)”, “WG 10” for “WG10”, “33” for “13”

[8] = tested on: Corn LG22.65; experiment: as above; details: 33 days after application, growth stage 13, vs untreated control
Description: as §1, with “Corn plants of 4 different varieties” for “Plants”, “13 (3 leaves unfolded)” for “30-32 (start of stem elongation) of cereal plants”, “Trinexapac-ethyl” for “Trinexapac-ethyl (treatment A)”, “Prohexadion-Ca” for “Prohexadione-Ca (treatment B)”, “WG 10” for “WG10”, “33” for “13”

| SMILES | % GR (plant growth reduction of the shoot) ([1]; 25 g a.i./ha) [%] | % GR (plant growth reduction of the shoot) ([1]; 50 g a.i./ha) [%] | % GR (plant growth reduction of the shoot) ([2]; 25 g a.i./ha) [%] | % GR (plant growth reduction of the shoot) ([2]; 50 g a.i./ha) [%] | % GR (plant growth reduction of the shoot) ([3]; 25 g a.i./ha) [%] | % GR (plant growth reduction of the shoot) ([3]; 50 g a.i./ha) [%] | % GR (plant growth reduction of the shoot) ([4]; 25 g a.i./ha) [%] | % GR (plant growth reduction of the shoot) ([4]; 50 g a.i./ha) [%] | % GR (plant growth reduction of the shoot) ([5]; 25 g a.i./ha) [%] | % GR (plant growth reduction of the shoot) ([5]; 50 g a.i./ha) [%] | % GR (plant growth reduction of the shoot) ([5]; 100 g a.i./ha) [%] | % GR (plant growth reduction of the shoot) ([6]; 25 g a.i./ha) [%] | % GR (plant growth reduction of the shoot) ([6]; 50 g a.i./ha) [%] | % GR (plant growth reduction of the shoot) ([6]; 100 g a.i./ha) [%] | % GR (plant growth reduction of the shoot) ([7]; 25 g a.i./ha) [%] | % GR (plant growth reduction of the shoot) ([7]; 50 g a.i./ha) [%] | % GR (plant growth reduction of the shoot) ([7]; 100 g a.i./ha) [%] | % GR (plant growth reduction of the shoot) ([8]; 25 g a.i./ha) [%] | % GR (plant growth reduction of the shoot) ([8]; 50 g a.i./ha) [%] | % GR (plant growth reduction of the shoot) ([8]; 100 g a.i./ha) [%] |
| --- | --- | --- | --- | --- | --- | --- | --- | --- | --- | --- | --- | --- | --- | --- | --- | --- | --- | --- | --- | --- |
| CCOC(=O)C1CC(=O)C(=C(O)C2CC2)C(=O)C1 (stereo not shown) [A, Trinexapac-ethyl] | 1.7 | 3.3 | 0.0 | 0.0 | 0.0 | 5.0 | 0.0 | 5.0 | 0.0 | 0.0 | 3.3 | 1.7 | 1.7 | 6.7 | 1.7 | 3.3 | 6.7 | 0.0 | 3.3 | 11.7 |
| CCC(=O)C1=C([O-])CC(C(=O)[O-])CC1=O.[Ca+2] (stereo not shown) [B, Prohexadione-Ca] | 0.0 | 3.3 | 0.0 | 1.7 | 0.0 | 5.0 | 0.0 | 3.3 | 0.0 | 0.0 | 1.7 | 0.0 | 0.0 | 0.0 | 1.7 | 5.0 | 18.3 | 0.0 | 1.7 | 13.3 |
